# Paper PMC6895180 (Nature Communications, 2019)
# Several values for one entry are separate records, joined by “and”; a condition that tells them apart may be missing. Equal entries are not always repeated. Where two headings read alike, the source gives them in different places.
# Columns and labels:
# [1] = biological target: P2 transporter (TbAT1) (Trypanosoma brucei brucei, UniProt Q9Y0I0); test: cell-based; settings: for Ki: P2 transporter Ki
# Experimental: Non-specific association of radiolabel with the cell pellet was determined using an identical incubation in the presence of saturating (1 mM) unlabelled adenosine.
# [2] = tested on: T. brucei BSF s427 wildtype cells; test: Growth assays of T. brucei (trypanocidal/trypanostatic effect); format: cell-based, Trypanosoma brucei
# Experimental: Growth assays of T. brucei
# To test the effect of the novel adenosine analogues on the growth of T. brucei BSF, s427 wildtype cells were seeded at 1×10^5 cells mL-1 in 5 mL of HMI-9 medium with 10% FBS and treated with compounds […]
# cells were also incubated in drug-free medium under the same conditions. 2 μM of 2’-deoxycoformycin were added to all cultures to avoid any potential effect of serum adenosine deaminase on the activity of test compounds and cordycepin.1
# Cells were manually counted in Neubauer chambers at 0, 2, 4, 6, 8, 12, 24, 36 and 48 h after addition of […]
# the drugs. […]
# After 6 and 12 h after addition of drugs, approximately 2×10^6 cells were harvested from each group and applied to glass slides pre-treated with poly-L-lysine, left to settle for 5 min and fixed with 4% formaldehyde for 4 min. The formaldehyde was neutralised by addition of 100 mM glycine (20 min).
# Cells were washed once with PBS and blocked for 1 h with 1% BSA/0.2% Tween-20 in PBS. Cells were […]
# [3] = tested on: T. brucei Squib 427; test: microbe, parasite or virus in culture; format: cell-based, Trypanosoma brucei brucei
# Sequence of P2 transporter (TbAT1) (Q9Y0I0 entry or part of it): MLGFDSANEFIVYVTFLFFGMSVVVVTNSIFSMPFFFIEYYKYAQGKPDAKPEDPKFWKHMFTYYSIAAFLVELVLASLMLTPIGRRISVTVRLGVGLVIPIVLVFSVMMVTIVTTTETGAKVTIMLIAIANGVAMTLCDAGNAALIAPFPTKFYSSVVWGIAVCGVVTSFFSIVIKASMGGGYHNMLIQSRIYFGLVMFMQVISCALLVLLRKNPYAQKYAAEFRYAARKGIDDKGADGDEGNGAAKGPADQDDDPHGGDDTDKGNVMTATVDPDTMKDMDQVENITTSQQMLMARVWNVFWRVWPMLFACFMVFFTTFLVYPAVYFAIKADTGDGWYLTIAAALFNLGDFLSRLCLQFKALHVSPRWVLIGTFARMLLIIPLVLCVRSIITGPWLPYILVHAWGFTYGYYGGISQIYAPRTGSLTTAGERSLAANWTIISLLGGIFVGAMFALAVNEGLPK
compound,measurement,setting,value
"Nc1ncnc2c1ccn2[C@@H]1O[C@H](CO)C[C@H]1O [Compound 9, 3’-deoxytubercidin]","P2 Ki, fold lower than the Km value for adenosine",[1],roughly 3 fold
same,energy advantage at P2 versus adenosine,[1],roughly 3 kJ mol^−1
same,P2 transporter ΔG^0,[1]; Gibbs free energy from −RT ln(Ki),-9.3 kcal/mol
same,IC50,"[1]; P2 transporter IC50, single experiments, [L] 0.033 or 0.1 per experiment",133 nM and 281 nM and 171 nM and 85 nM
same,Ki,"[1]; AVG, source data",147 nM
same,Ki,"[1]; inhibition of [3H]adenosine uptake, mean ± SEM, n = 3",149 ± 30 nM
same,Ki,"[1]; single experiments, Cheng–Prusoff from IC50",111 nM and 236 nM and 160 nM and 80 nM
same,P2 transporter δ(ΔG^0),[1]; in comparison to adenosine,-0.741 kcal/mol
same,AVG of cells/mL,"[2]; 2xEC50, 2 h, experiment 1",105000 cells/mL
same,Cells/mL,"[2]; 2xEC50, 2 h, experiment 1",117500 Cells/mL and 92500 Cells/mL
same,Counts,"[2]; 2xEC50, 2 h, experiment 1",47 and 37
same,AVG of cells/mL,"[2]; 2xEC50, 2 h, experiment 2",147500 cells/mL
same,Cells/mL,"[2]; 2xEC50, 2 h, experiment 2",140000 Cells/mL and 155000 Cells/mL
same,Counts,"[2]; 2xEC50, 2 h, experiment 2",56 and 62
same,AVG of cells/mL,"[2]; 2xEC50, 4 h, experiment 1",158750 cells/mL
same,Cells/mL,"[2]; 2xEC50, 4 h, experiment 1",160000 Cells/mL and 157500 Cells/mL
same,Counts,"[2]; 2xEC50, 4 h, experiment 1",63 and 64
same,AVG of cells/mL,"[2]; 2xEC50, 4 h, experiment 2",186250 cells/mL
same,Cells/mL,"[2]; 2xEC50, 4 h, experiment 2",177500 Cells/mL and 195000 Cells/mL
same,Counts,"[2]; 2xEC50, 4 h, experiment 2",78 and 71
same,AVG of cells/mL,"[2]; 2xEC50, 6 h, experiment 1",160000 cells/mL
same,Cells/mL,"[2]; 2xEC50, 6 h, experiment 1",170000 Cells/mL and 150000 Cells/mL
same,Counts,"[2]; 2xEC50, 6 h, experiment 1",68 and 60
same,AVG of cells/mL,"[2]; 2xEC50, 6 h, experiment 2",210000 cells/mL
same,Cells/mL,"[2]; 2xEC50, 6 h, experiment 2",192500 Cells/mL and 227500 Cells/mL
same,Counts,"[2]; 2xEC50, 6 h, experiment 2",77 and 91
same,AVG of cells/mL,"[2]; 2xEC50, 8 h, experiment 1",167500 cells/mL
same,Cells/mL,"[2]; 2xEC50, 8 h, experiment 1",162500 Cells/mL and 172500 Cells/mL
same,Counts,"[2]; 2xEC50, 8 h, experiment 1",65 and 69
same,AVG of cells/mL,"[2]; 2xEC50, 8 h, experiment 2",156250 cells/mL
same,Cells/mL,"[2]; 2xEC50, 8 h, experiment 2",162500 Cells/mL and 150000 Cells/mL
same,Counts,"[2]; 2xEC50, 8 h, experiment 2",65 and 60
same,AVG of cells/mL,"[2]; 2xEC50, 12 h, experiment 1",152500 cells/mL
same,Cells/mL,"[2]; 2xEC50, 12 h, experiment 1",165000 Cells/mL and 140000 Cells/mL
same,Counts,"[2]; 2xEC50, 12 h, experiment 1",66 and 56
same,AVG of cells/mL,"[2]; 2xEC50, 12 h, experiment 2",145000 cells/mL
same,Cells/mL,"[2]; 2xEC50, 12 h, experiment 2",145000 Cells/mL
same,Counts,"[2]; 2xEC50, 12 h, experiment 2",58
same,AVG of cells/mL,"[2]; 2xEC50, 24 h, experiment 1",86250 cells/mL
same,Cells/mL,"[2]; 2xEC50, 24 h, experiment 1",77500 Cells/mL and 95000 Cells/mL
same,Counts,"[2]; 2xEC50, 24 h, experiment 1",31 and 38
same,AVG of cells/mL,"[2]; 2xEC50, 24 h, experiment 2",47500 cells/mL
same,Cells/mL,"[2]; 2xEC50, 24 h, experiment 2",37500 Cells/mL and 57500 Cells/mL
same,Counts,"[2]; 2xEC50, 24 h, experiment 2",15 and 23
same,AVG of cells/mL,"[2]; 2xEC50, 36 h, experiment 1",76250 cells/mL
same,Cells/mL,"[2]; 2xEC50, 36 h, experiment 1",87500 Cells/mL and 65000 Cells/mL
same,Counts,"[2]; 2xEC50, 36 h, experiment 1",35 and 26
same,AVG of cells/mL,"[2]; 2xEC50, 36 h, experiment 2",6250 cells/mL
same,Cells/mL,"[2]; 2xEC50, 36 h, experiment 2",7500 Cells/mL and 5000 Cells/mL
same,Counts,"[2]; 2xEC50, 36 h, experiment 2",3 and 2
same,Cells/mL,"[2]; 2xEC50, 48 h, experiment 1",0 Cells/mL
same,Counts,"[2]; 2xEC50, 48 h, experiment 1",0
same,AVG of cells/mL,"[2]; 2xEC50, 48 h, experiment 2",2500 cells/mL
same,effect on T. brucei bloodstream forms in culture (cidal/static),[2]; 2× and 5× EC50,trypanocidal
same,AVG of cells/mL,"[2]; 5xEC50, 2 h, experiment 1",131250 cells/mL
same,Cells/mL,"[2]; 5xEC50, 2 h, experiment 1",135000 Cells/mL and 127500 Cells/mL
same,Counts,"[2]; 5xEC50, 2 h, experiment 1",54 and 51
same,AVG of cells/mL,"[2]; 5xEC50, 2 h, experiment 2",135000 cells/mL
same,Cells/mL,"[2]; 5xEC50, 2 h, experiment 2",127500 Cells/mL and 142500 Cells/mL
same,Counts,"[2]; 5xEC50, 2 h, experiment 2",51 and 57
same,AVG of cells/mL,"[2]; 5xEC50, 4 h, experiment 1",138750 cells/mL
same,Cells/mL,"[2]; 5xEC50, 4 h, experiment 1",117500 Cells/mL and 160000 Cells/mL
same,Counts,"[2]; 5xEC50, 4 h, experiment 1",64 and 47
same,AVG of cells/mL,"[2]; 5xEC50, 4 h, experiment 2",181250 cells/mL
same,Cells/mL,"[2]; 5xEC50, 4 h, experiment 2",177500 Cells/mL and 185000 Cells/mL
same,Counts,"[2]; 5xEC50, 4 h, experiment 2",74 and 71
same,AVG of cells/mL,"[2]; 5xEC50, 6 h, experiment 1",140000 cells/mL
same,Cells/mL,"[2]; 5xEC50, 6 h, experiment 1",127500 Cells/mL and 152500 Cells/mL
same,Counts,"[2]; 5xEC50, 6 h, experiment 1",51 and 61
same,AVG of cells/mL,"[2]; 5xEC50, 6 h, experiment 2",145000 cells/mL
same,Cells/mL,"[2]; 5xEC50, 6 h, experiment 2",135000 Cells/mL and 155000 Cells/mL
same,Counts,"[2]; 5xEC50, 6 h, experiment 2",54 and 62
same,AVG of cells/mL,"[2]; 5xEC50, 8 h, experiment 1",136250 cells/mL
same,Cells/mL,"[2]; 5xEC50, 8 h, experiment 1",115000 Cells/mL and 157500 Cells/mL
same,Counts,"[2]; 5xEC50, 8 h, experiment 1",46 and 63
same,AVG of cells/mL,"[2]; 5xEC50, 8 h, experiment 2",137500 cells/mL
same,Cells/mL,"[2]; 5xEC50, 8 h, experiment 2",135000 Cells/mL and 140000 Cells/mL
same,Counts,"[2]; 5xEC50, 8 h, experiment 2",54 and 56
same,AVG of cells/mL,"[2]; 5xEC50, 12 h, experiment 1",127500 cells/mL
same,Cells/mL,"[2]; 5xEC50, 12 h, experiment 1",135000 Cells/mL and 120000 Cells/mL
same,Counts,"[2]; 5xEC50, 12 h, experiment 1",54 and 48
same,AVG of cells/mL,"[2]; 5xEC50, 12 h, experiment 2",125000 cells/mL
same,Cells/mL,"[2]; 5xEC50, 12 h, experiment 2",125000 Cells/mL
same,Counts,"[2]; 5xEC50, 12 h, experiment 2",50
same,AVG of cells/mL,"[2]; 5xEC50, 24 h, experiment 1",47500 cells/mL
same,Cells/mL,"[2]; 5xEC50, 24 h, experiment 1",45000 Cells/mL and 50000 Cells/mL
same,Counts,"[2]; 5xEC50, 24 h, experiment 1",18 and 20
same,AVG of cells/mL,"[2]; 5xEC50, 24 h, experiment 2",25000 cells/mL
same,Cells/mL,"[2]; 5xEC50, 24 h, experiment 2",27500 Cells/mL and 22500 Cells/mL
same,Counts,"[2]; 5xEC50, 24 h, experiment 2",11 and 9
same,AVG of cells/mL,"[2]; 5xEC50, 36 h, experiment 1",22500 cells/mL
same,Cells/mL,"[2]; 5xEC50, 36 h, experiment 1",25000 Cells/mL and 20000 Cells/mL
same,Counts,"[2]; 5xEC50, 36 h, experiment 1",10 and 8
same,AVG of cells/mL,"[2]; 5xEC50, 36 h, experiment 2",3750 cells/mL
same,Cells/mL,"[2]; 5xEC50, 36 h, experiment 2",5000 Cells/mL and 2500 Cells/mL
same,Counts,"[2]; 5xEC50, 36 h, experiment 2",2 and 1
same,Cells/mL,"[2]; 5xEC50, 48 h, experiment 1",0 Cells/mL
same,Counts,"[2]; 5xEC50, 48 h, experiment 1",0
same,AVG of cells/mL,"[2]; 5xEC50, 48 h, experiment 2",0 cells/mL
same,Cells/mL,"[2]; 5xEC50, 48 h, experiment 2",0 Cells/mL
same,Counts,"[2]; 5xEC50, 48 h, experiment 2",0
same,EC50,"[3]; Trypanosoma brucei, Alamar blue cell viability assay, mean and SEM, read-out: T. b. brucei EC50",48 ± 9 nM
same,EC50,"[3]; Trypanosoma brucei, source data, read-out: T. brucei brucei EC50, Average",47.7 nM
same,EC50,"[3]; Trypanosoma brucei, source data, read-out: T. brucei brucei EC50, single measurements",39.9 nM
same,SI (MRC/T.b. brucei),[3]; selectivity index,>1333
same,EC50,"[3]; source data, read-out: T. brucei brucei EC50, single measurements",65.2 nM and 38 nM
